Assay results taken from patent US20030068615A1, “Polypeptides that bind HIV gp120 and related nucleic acids, antibodies, compositions, and methods of use” (priority 1999, published 2003).
Where “and” joins values, the source holds several entries; their conditions need not be identical. Equal values may be shown once. Read-outs that look alike come from different tables or passages of the source.

Biological target: HIV-1LAI envelope gp120 (Human immunodeficiency virus type 1 group M subtype B, UniProt P03377)
Assay type: binding
Settings: for Counts per 20′ Average-background: CCR5 18-mer scan, radiolabeled HIV-1LAI gp120; for Relative % of Control: mean of two syntheses and binding experiments ± average deviation, wild-type = 100%; for number of radioactive decays (counts) counted: human CD4 21-mer scan, empty control 2075
[1] = STRL33 18-mer scan, background subtracted, first of two count columns
[2] = STRL33 18-mer scan, background subtracted, second of two count columns
[3] = Panel F, sequential alanine replacements of CD4 polypeptides, duplicate series, empty control 569
[4] = Panel E, 9-mers and 12-mers of CD4, empty control 571
[5] = Panel C, 15-mers and 18-mers of CD4, empty control 556
[6] = Panel A, 21-mers of CD4, empty control 515 and 617
[7] = CXCR4 18-mer scan, background subtracted, empty control 0
[8] = CXCR4 18-mer scan, empty control 412
[9] = Panel D, 9-mers and 12-mers of CD4, empty control […]
[10] = Panel B, 15-mers and 18-mers of CD4, empty control 575

## AARLLPPLYSLVFIFGFV [CCR5 segment 29-46]
Background subtracted
  Counts per 20′ Average-background: 33 counts per 20′

## ACLNPVLYAFVSLKFRKN [STRL33 segment 281-298]
[1]
  radioactive counts recorded in twenty minutes: 4173.5 counts
[2]
  radioactive counts recorded in twenty minutes: 4515.5 counts

## ADYQVSSPIYDINYYTSE [CCR5 (1-18) variant M1A]
CCR5 (1-18) alanine variants
  Relative % of Control: 167 ± 4%

## AEGISIYTSDNYTEEMGS [CXCR4 (1-18) variant M1A]
CXCR4 (1-18) alanine variants
  Relative % of Control: 118 ± 18%

## AEHDYHEDYGFSSFNDSS
STRL33 amino terminus, 9-mer starting at the first residue of the printed sequence, background subtracted
  Binding Results For Window Length (counts bound-background), 9: 354 counts
STRL33 amino terminus, 12-mer starting at the first residue of the printed sequence, background subtracted
  Binding Results For Window Length (counts bound-background), 12: 697 counts
STRL33 amino terminus, 15-mer starting at the first residue of the printed sequence, background subtracted
  Binding Results For Window Length (counts bound-background), 15: 1095 counts
STRL33 amino terminus, 18-mer starting at the first residue of the printed sequence, background subtracted
  Binding Results For Window Length (counts bound-background), 18: 1014 counts

## AEQVEFSFPLAFTVE
Panel G, alanine replacements and serial truncations (Z) of CD4 polypeptides, empty control 580
  COUNTS of radiolabeled gp120 retained: 18042 counts and 18546 counts

## AEVQLLVFGLTANSD
[3]
  COUNTS of radiolabeled gp120 retained: 16220 counts and 14590 counts

## AFLQFSKVFLPCMYLVVF [STRL33 segment 25-42]
[1]
  radioactive counts recorded in twenty minutes: 1421.5 counts
[2]
  radioactive counts recorded in twenty minutes: 1359.5 counts

## AFQKASSIV
[4]
  COUNTS of radiolabeled gp120 retained: 595 counts

## AFQKASSIVYKK
[4]
  COUNTS of radiolabeled gp120 retained: 597 counts

## AFQKASSIVYKKEGE
[5]
  COUNTS of radiolabeled gp120 retained: 544 counts

## AFQKASSIVYKKEGEQVE
[5]
  COUNTS of radiolabeled gp120 retained: 514 counts

## AFQKASSIVYKKEGEQVEFSF
[6]
  COUNTS of radiolabeled gp120 retained: 3775 counts

## AFTVEKLTG
[4]
  COUNTS of radiolabeled gp120 retained: 517 counts

## AFTVEKLTGSGE
[4]
  COUNTS of radiolabeled gp120 retained: 511 counts

## AFTVEKLTGSGELWW
[5]
  COUNTS of radiolabeled gp120 retained: 586 counts

## AFTVEKLTGSGELWWQAE
[5]
  COUNTS of radiolabeled gp120 retained: 788 counts

## AFTVEKLTGSGELWWQAERAS [human CD4 226-246]
[6]
  COUNTS of radiolabeled gp120 retained: 1739 counts
  number of radioactive decays (counts) counted: 3992 counts

## AFVSLKFRKNFWKLVKDI [STRL33 segment 289-306]
[1]
  radioactive counts recorded in twenty minutes: 808.5 counts
[2]
  radioactive counts recorded in twenty minutes: 1040.5 counts

## AGGFQKHRSLKIIFLVMA
[1]
  radioactive counts recorded in twenty minutes: 340.5 counts
[2]
  radioactive counts recorded in twenty minutes: 260.5 counts

## AGLLLFIGLGIFFCVRCRHRR
  number of radioactive decays (counts) counted: 2099 counts

## AHLLQGQSLTLTLES
[3]
  COUNTS of radiolabeled gp120 retained: 8602 counts and 5826 counts

## AISDLFFLLTVPFWAHYA [CCR5 segment 73-90]
Background subtracted
  Counts per 20′ Average-background: 41 counts per 20′

## AIVHATNSQRPRKLLAEK [CXCR4 segment 137-154]
[7]
  radioactive counts recorded in twenty minutes: 73 counts
[8]
  radioactive counts recorded in twenty minutes: 485 counts

## AKRFCKCCSIFQQEAPER [CCR5 segment 317-]
Background subtracted
  Counts per 20′ Average-background: 64 counts per 20′

## ALAFFHCCLNPILYAFLG [CXCR4 segment 289-306]
[7]
  radioactive counts recorded in twenty minutes: 181 counts
[8]
  radioactive counts recorded in twenty minutes: 593 counts

## ALKTTVILILAFFACWLP [CXCR4 segment 237-254]
[7]
  radioactive counts recorded in twenty minutes: 261 counts
[8]
  radioactive counts recorded in twenty minutes: 673 counts

## ANSDTHLLQ
[9]
  COUNTS of radiolabeled gp120 retained: 642 counts

## ANSDTHLLQGQS
[9]
  COUNTS of radiolabeled gp120 retained: 559 counts

## ANSDTHLLQGQSLTL
[10]
  COUNTS of radiolabeled gp120 retained: 542 counts

## ANSDTHLLQGQSLTLTLE
[10]
  COUNTS of radiolabeled gp120 retained: 1540 counts

## APYNIVLLLNTFQEFFGL [CCR5 segment 249-]
Background subtracted
  Counts per 20′ Average-background: 1962 counts per 20′

## AQNALTSVSRGSSLKILS [CXCR4 segment 313-330]
[7]
  radioactive counts recorded in twenty minutes: 147 counts
[8]
  radioactive counts recorded in twenty minutes: 559 counts

## ASSIVYKKE
[4]
  COUNTS of radiolabeled gp120 retained: 600 counts

## ASSIVYKKEGEQ
[4]
  COUNTS of radiolabeled gp120 retained: 523 counts

## ASSIVYKKEGEQVEF
[5]
  COUNTS of radiolabeled gp120 retained: 589 counts

## ASSIVYKKEGEQVEFSFP
[5]
  COUNTS of radiolabeled gp120 retained: 701 counts

## ASSIVYKKEGEQVEFSFPLAF
[6]
  COUNTS of radiolabeled gp120 retained: 25146 counts

## ATNSQRPRKLLAEKVVYV
[7]
  radioactive counts recorded in twenty minutes: 78 counts
[8]
  radioactive counts recorded in twenty minutes: 490 counts

## ATQMTLGFFLPLLTMIVC [STRL33 segment 193-210]
[1]
  radioactive counts recorded in twenty minutes: 2365.5 counts
[2]
  radioactive counts recorded in twenty minutes: 2444.5 counts

## AVFALKARTVTFGVVTSV
Background subtracted
  Counts per 20′ Average-background: 63 counts per 20′

## AVRLIFTIMTVYFLFWAP [CCR5 segment 233-]
Background subtracted
  Counts per 20′ Average-background: 62 counts per 20′

## AVVHAVFALKARTVTFGV
Background subtracted
  Counts per 20′ Average-background: 34 counts per 20′

## AYLRACLNPVLYAFVSLK [STRL33 segment 277-294]
[1]
  radioactive counts recorded in twenty minutes: 1802.5 counts
[2]
  radioactive counts recorded in twenty minutes: 1849.5 counts

## AYNQQAKRMTWGKVTSLL [STRL33 segment 137-154]
[1]
  radioactive counts recorded in twenty minutes: 55.5 counts
[2]
  radioactive counts recorded in twenty minutes: 4.5 counts

## CEVEDQKEE
[9]
  COUNTS of radiolabeled gp120 retained: 555 counts

## CEVEDQKEEVQL
[9]
  COUNTS of radiolabeled gp120 retained: 561 counts

## CEVEDQKEEVQLLVF
[10]
  COUNTS of radiolabeled gp120 retained: 1729 counts

## CEVEDQKEEVQLLVFGLT
[10]
  COUNTS of radiolabeled gp120 retained: 3797 counts

## CKAVHVIYTVNLYSSVLI
[7]
  radioactive counts recorded in twenty minutes: 243 counts
[8]
  radioactive counts recorded in twenty minutes: 655 counts

## CKCCSIFQQEAPERASSV [CCR5 segment 321-]
Background subtracted
  Counts per 20′ Average-background: 53 counts per 20′

## CQLLTGLYFIGFFSGIFF
Background subtracted
  Counts per 20′ Average-background: 489 counts per 20′

## CSSSNRLDQAMQVTETLG [CCR5 segment 269-]
Background subtracted
  Counts per 20′ Average-background: 90 counts per 20′

## CTVLQNQKKVEFKID
[5]
  COUNTS of radiolabeled gp120 retained: 608 counts

## CTVLQNQKKVEFKIDIVV
[5]
  COUNTS of radiolabeled gp120 retained: 553 counts

## CYSGILKTLLRCRNEKKR
Background subtracted
  Counts per 20′ Average-background: 70 counts per 20′

## DAVANWYFGNFLCKAVHV
[7]
  radioactive counts recorded in twenty minutes: 112 counts
[8]
  radioactive counts recorded in twenty minutes: 524 counts

## DDRYICDRFYPNDLWVVV
[7]
  radioactive counts recorded in twenty minutes: 125 counts
[8]
  radioactive counts recorded in twenty minutes: 537 counts

## DIGCLPYLGVSHQWKSSE
[1]
  radioactive counts recorded in twenty minutes: 17.5 counts
[2]
  radioactive counts recorded in twenty minutes: 78.5 counts

## DIVVLAFQK
[4]
  COUNTS of radiolabeled gp120 retained: 686 counts

## DIVVLAFQKASS
[4]
  COUNTS of radiolabeled gp120 retained: 746 counts

## DIVVLAFQKASSIVY
[5]
  COUNTS of radiolabeled gp120 retained: 776 counts

## DIVVLAFQKASSIVYKKE
[5]
  COUNTS of radiolabeled gp120 retained: 660 counts

## DIVVLAFQKASSIVYKKEGEQ
[6]
  COUNTS of radiolabeled gp120 retained: 788 counts

## DLVFVCTLPFWAYAGIHE [STRL33 segment 77-94]
[1]
  radioactive counts recorded in twenty minutes: 1116.5 counts
[2]
  radioactive counts recorded in twenty minutes: 1063.5 counts

## DLWVVVFQFQHIMVGLIL [CXCR4 segment 193-210]
[7]
  radioactive counts recorded in twenty minutes: 422 counts
[8]
  radioactive counts recorded in twenty minutes: 834 counts

## DQGNFPLII
[9]
  COUNTS of radiolabeled gp120 retained: 662 counts

## DQGNFPLIIKNL
[9]
  COUNTS of radiolabeled gp120 retained: 604 counts

## DQGNFPLIIKNLKIE
[10]
  COUNTS of radiolabeled gp120 retained: 635 counts

## DQGNFPLIIKNLKIEDSD
[10]
  COUNTS of radiolabeled gp120 retained: 598 counts

## DQKEEVQLL
[9]
  COUNTS of radiolabeled gp120 retained: 589 counts

## DQKEEVQLLVFG
[9]
  COUNTS of radiolabeled gp120 retained: 1624 counts

## DQKEEVQLLVFGLTA
[10]
  COUNTS of radiolabeled gp120 retained: 3905 counts

## DQKEEVQLLVFGLTANSD
[10]
  COUNTS of radiolabeled gp120 retained: 3317 counts
